In PubChem BioAssay (NCI):
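Compound exposure: 48 hours, 5 concentrations, 96-well plates. TGI is the concentration that stops growth completely.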

What was measured:
Assay in all cases: NCI-60 cell line screen, 48 h
MALME-3M melanoma = system: MALME-3M melanoma
SW-620 colon = system: SW-620 colon
NCI-H460 lung = system: NCI-H460 lung
RXF 393 renal = system: RXF 393 renal
K-562 leukemia = system: K-562 leukemia
NCI-H23 lung = system: NCI-H23 lung
OVCAR-4 ovarian = system: OVCAR-4 ovarian
T-47D breast = system: T-47D breast
IGROV1 ovarian = system: IGROV1 ovarian
SK-MEL-2 melanoma = system: SK-MEL-2 melanoma
UACC-62 melanoma = system: UACC-62 melanoma
U251 CNS = system: U251 CNS
MCF7 breast = system: MCF7 breast
HOP-62 NSCLC = system: HOP-62 NSCLC
ACHN renal = system: ACHN renal
M14 melanoma = system: M14 melanoma
NCI/ADR-RES ovarian = system: NCI/ADR-RES ovarian
SR leukemia = system: SR leukemia
SF-268 CNS = system: SF-268 CNS
SK-MEL-28 melanoma = system: SK-MEL-28 melanoma
SK-OV-3 ovarian = system: SK-OV-3 ovarian
A549 NSCLC = system: A549 NSCLC
OVCAR-5 ovarian = system: OVCAR-5 ovarian
SK-MEL-5 melanoma = system: SK-MEL-5 melanoma
786-0 renal = system: 786-0 renal
SNB-75 CNS = system: SNB-75 CNS
MDA-MB-435 = system: MDA-MB-435
COLO 205 colon = system: COLO 205 colon
RPMI-8226 leukemia = system: RPMI-8226 leukemia
CAKI-1 renal = system: CAKI-1 renal

Measured: TGI

O=P(O)(Cc1ccccc1)OCC1(O)OCC(O)C(O)C1O (stereo not given)
> 10 µM: all assays above
